{
  "source": "patent US7662382B2",
  "about": "“Inducible ligand for α1β1 integrin and uses” (Boys Town National Research Hospital, priority 2002, dated 2010)",
  "key": {"[1]": {"tested_on": "primary kidney endothelial cell cultures", "experiment": "Binding of Alexa-568-conjugated α1β1 integrin to treated primary kidney endothelial cells", "format": "cell-based, mouse", "method": "Primary endothelial cells were isolated from wild type mouse kidneys using anti-CD31 coated metallic beads. Cells were cultured in endothelial cell medium (DMEM/F12, 50 μg/ml Endothelial mitogen, 1% penicillin/streptomycin, 20 mM L-Glutamine, and 1 U/mL heparin prepared fresh not filtered) containing 20% FCS. Thirty-two wells of 5×10^4 cells/well in a 96 well plate coated with 1% gelatin in sterile PBS were set up. Cells were maintained in endothelial cell media with 20% FCS until cells reached confluence. Confluent cells were washed with HBSS, then covered with endothelial cell media without serum at 200 μL/well and kept in a humidified chamber at 37° C., 5% CO2. Twenty-four hours later fresh endothelial cell medium was added without serum and various concentrations of MCP-1 and H2O2 were added at 24 or 48 hours (hrs) prior to conducting the assay for cell binding to α1β1 integrin as shown in the following Table 1."}, "[2]": {"target": "T1, ligand for α1β1 integrin on endothelial cells (Collagen XIII) (Mus musculus, UniProt Q9R1N9)", "T1 construct": "from tissue; host or cells: vascular endothelium of kidneys of living Alport (collagen IV α3 -/-) mice", "T1 sequence (Q9R1N9 whole entry)": "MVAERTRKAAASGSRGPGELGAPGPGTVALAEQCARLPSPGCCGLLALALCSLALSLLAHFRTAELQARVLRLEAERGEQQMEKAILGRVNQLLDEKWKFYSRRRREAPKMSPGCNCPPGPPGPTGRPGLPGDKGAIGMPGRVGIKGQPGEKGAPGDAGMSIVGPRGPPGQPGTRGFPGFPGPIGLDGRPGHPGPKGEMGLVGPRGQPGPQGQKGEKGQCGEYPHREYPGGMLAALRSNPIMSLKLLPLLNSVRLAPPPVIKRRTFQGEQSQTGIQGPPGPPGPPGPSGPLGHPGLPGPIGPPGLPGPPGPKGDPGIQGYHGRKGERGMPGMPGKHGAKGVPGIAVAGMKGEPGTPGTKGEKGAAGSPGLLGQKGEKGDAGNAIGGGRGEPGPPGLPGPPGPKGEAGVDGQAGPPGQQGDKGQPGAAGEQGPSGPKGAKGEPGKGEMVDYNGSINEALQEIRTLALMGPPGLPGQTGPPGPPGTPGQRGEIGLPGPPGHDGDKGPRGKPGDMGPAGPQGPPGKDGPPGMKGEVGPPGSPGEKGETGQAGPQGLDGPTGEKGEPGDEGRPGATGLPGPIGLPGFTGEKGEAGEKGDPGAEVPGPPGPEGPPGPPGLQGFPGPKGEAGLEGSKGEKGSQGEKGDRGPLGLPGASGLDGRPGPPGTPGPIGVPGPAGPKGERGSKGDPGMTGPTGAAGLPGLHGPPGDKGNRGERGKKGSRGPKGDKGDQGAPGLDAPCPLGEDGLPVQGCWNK", "experiment": "Monocyte efflux into the interstitium of Alport kidneys after injection of purified α1β1 integrin (Alexa 568 dextran trafficking)", "format": "in vivo", "conditions": "Alport mice, 5 μg purified α1β1 integrin into tail vein daily from one day before labeled dextrans, kidneys three days after dextrans, vs untreated Alport mice", "from_the_text": "Male wild type 129SV and 129SVJ mice (4-12 weeks old) along with collagen IV α3 (−/−) (Alport: 5-8 weeks old) and collagen IV α3 (−/−)/integrin α1 (−/−) double knock out (DKO: 8-12 weeks old) mice were tail vein injected with […] of Alexa 568 labeled dextran reconstituted in 100 microliters (μL) Hanks Balanced Salt Solution (pH 7.2). Three days post injection animals were given a lethal injection of averitin (0.55 grams per kilogram (g/kg) body weight; ip) followed by cardiac perfusion with ice cold PBS. Kidneys were removed and immersed in increasing concentrations of ice cold sucrose (30% max) then embedded in Tissue Tek OCT mounting medium (Sakura Finetek USA, Inc., Torrence, Calif.) and stored at −80° C.\nFresh frozen tissue sections (4 μm) were fixed in 2% paraformaldehyde for 5 minutes and allowed to dry overnight at 4° C. followed by extended storage at −20° C. or immunohistochemical detection of monocytes using rat monoclonal α-CD11b (Cedar Lane laboratories, Hornby, Ontario) and Goat anti rat Alexa 488 (Molecular Probes, Inc. Eugene, Oreg.) antibodies at 1:100 and 1:200 dilutions respectively. Sections were cover slipped with vectorshield mounting medium (Vector Corp. Burlingme, Calif.). […] Green fluorescence alone as well as co-localized dual fluorescence were measured using Image Pro Plus software (Media Cybernetics, Inc. Silver Spring, Md.). […]"}, "[3]": {"tested_on": "renal cortical vascular endothelium", "experiment": "Binding of Alexa 568-labeled purified α1β1 integrin to kidney vascular endothelium after tail vein injection", "format": "in vivo, mouse", "conditions": "24 hours after tail vein injection", "from_the_text": "If such a direct role exists, there must be a ligand for α1β1 integrin on the renal cortical vascular endothelium of Alport mice that is absent on normal mice. To test for the presence of such a ligand, purified α1β1 integrin (purchased from Chemicon, Temecula, Calif.) was labeled with Alexa 568, and the labeled integrin injected into the tail vein of normal, Alport, and DKO mice. Twenty-four hours following the injection, kidneys were harvested, and cryosections examined. […] Since monocytes phagocytize labeled dextrans, what is interpreted as integrin might be phagocytized integrin in monocytes."}, "[4]": {"experiment": "Pilot stability study with Alexa-conjugated integrin α1β1", "conditions": "Alexa-conjugated integrin α1β1, data not shown", "method": "In an attempt to provide a more definitive test for the function of α1β1 in monocyte efflux into diseased kidneys, 5 μg of purified α1β1 integrin was injected into the tail vein of Alport mice daily, starting one day before injection of labeled dextrans, and kidneys harvested three days following injection of dextrans. Pilot studies with Alexa-conjugated integrin α1β1 were conducted to assess the stability prior to the blocking experiments. […] If transendothelial migration of monocytes into the interstitial space is mediated, in part, through binding a ligand on endothelial cells, a decrease in labeled monocytes in Alport mice treated with α1β1 integrin compared to untreated age-matched Alport mice should be observed, since the purified integrin should occupy ligand, making less available for binding to monocytes."}},
  "data": [
    {"compound": "OO", "note": "[hydrogen peroxide, reference compound]", "values": [
      {"measurement": "binding of Alexa-conjugated α1β1 integrin to cultured primary kidney endothelial cells", "setting": "[1]; cells treated with hydrogen peroxide (24 or 48 hrs), concentration and time-dependent", "result": "promotes the binding"}
    ]},
    {"compound": "MCP-1: recombinant monocyte chemo-attractive protein-1, a chemokine", "values": [
      {"measurement": "adhesion of α1β1 integrin to endothelial cells", "setting": "[1]; cells pre-treated with recombinant MCP-1 (24 or 48 hrs) vs untreated cells, time and dose dependent", "result": "significantly elevated adhesion"}
    ]},
    {"compound": "purified α1β1 integrin: purified human α1β1 integrin purchased from Chemicon, Temecula, Calif.; also used labeled with Alexa 568", "values": [
      {"measurement": "monocyte efflux (Alexa-labeled CD11b-positive monocytes in the interstitium)", "setting": "[2]", "result": "a trend for a reduction in monocyte efflux"},
      {"measurement": "labeling of kidney cryosections by Alexa 568-labeled integrin", "setting": "[3]; Alport mice", "result": "strong labeling in the vascular endothelium"},
      {"measurement": "labeling of kidney cryosections by Alexa 568-labeled integrin", "setting": "[3]; normal (control) mice", "result": "absence of label"},
      {"measurement": "stability of the purified integrin", "setting": "[4]", "result": "at least 72 hours"}
    ]}
  ]
}
